Test results published in patent publication US7893288B2, “Poly-halogenated triazapentadiene compositions” (Board of Regents, The University of Texas System, priority 2007, dated 2011).
“And” between values parts separate entries of the source, which are not always exact repeats. Equal values may be shown once.

Assays:
Format in all cases: cell-based
[1] = tested on: Pseudomonas aeruginosa PAO1; experiment: Minimum inhibitory concentration in LB broth, P. aeruginosa; settings: for Relative to AgNO3: efficacy per mole from MIC values
Escherichia coli HB101 [2] = experiment: Minimum inhibitory concentration in LB broth, E. coli; settings: for Relative to AgNO3: efficacy per mole from MIC values;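 on all read-outs here: broth dilution MIC, test compounds first taken up in DMSO, then serially diluted in LB medium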
Escherichia coli HB101 [3] = experiment: Disk sensitivity test (modified Kirby-Bauer), E. coli;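 further: filter disk loaded with compound in DMSO laid on an LB agar bacterial lawn, kept overnight at 37 °C, then the inhibition zone around the disk is measured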
Experimental: (§1) Filter disks were provided as sterile filter paper (about 6 mm in diameter) and spotted with 20 μL of a selected compound. Each compound was initially dissolved in dimethylsulfoxide (DMSO); any subsequent dilutions were also made in DMSO. Each filter was placed on an LB agar plate spread with 100 μL of a bacterial culture that had been grown overnight in suitable LB broth. Plates were incubated overnight at 37° C., after which, the extent of growth inhibition around each filter disk was measured. Bacterial strains included Staphylococcus aureus (ATCC 25923), Pseudomonas aeruginosa PAO1, Bacillus subtilis W168 and Escherichia coli HB101. […] The latter two strains are non-pathogenic Gram-positive and Gram-negative bacterial strains, respectively.

Bacillus subtilis W168 [4] = experiment: Minimum inhibitory concentration in LB broth, B. subtilis; settings: for Relative to AgNO3: efficacy per mole from MIC values
Bacillus subtilis W168 [5] = experiment: Disk sensitivity test (modified Kirby-Bauer), B. subtilis;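 further: Compound-loaded filter disks on LB agar plates seeded with a bacterial lawn, plates held overnight at 37 °C, then the clear zone around each disk measured, compounds in DMSO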
Experimental: as §1

[6] = tested on: Staphylococcus aureus (ATCC 25923); experiment: Minimum inhibitory concentration in LB broth, S. aureus; settings: for Relative to AgNO3: efficacy per mole from MIC values
[7] = tested on: Pseudomonas aeruginosa PAO1; experiment: Disk sensitivity test (modified Kirby-Bauer), P. aeruginosa;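 further: Compound-loaded filter disks on LB agar lawns, DMSO as solvent, zone of inhibition around each disk read after overnight incubation at 37 °C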
Experimental: as §1

[8] = tested on: Gram positive and Gram negative bacteria; experiment: Antimicrobial activity, summary of TABLES 16-18
Experimental: The new class of fluorinated triazapentadiene compounds with and without metal complexation as described herein were analyzed for antibacterial activity against several bacterial strains (both Gram positive and Gram negative). Methods for antimicrobial analysis included a modified Kirby-Bauer method and a determination of their minimum inhibitory concentrations. In brief, the modified Kirby-Bauer method relied on placement of a filter disk impregnated with a desired compound on a solid growth medium. Bacteria were grown to a confluent lawn and the extent of growth inhibition was measured (e.g., as an extent/percentage of a clear zone on the disk and/or solid medium).
For MIC assessment, compounds were initially dissolved in DMSO and serial dilutions of soluble compounds were made in LB broth.

[9] = tested on: Staphylococcus aureus (ATCC 25923); experiment: Disk sensitivity test (modified Kirby-Bauer), S. aureus;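 further: Compound-loaded filter disks on LB agar plates seeded with a confluent bacterial lawn, compound dissolved in DMSO, plates kept overnight at 37 °C, then inhibition zone around disk measured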
Experimental: as §1

Structure (SMILES)	MIC [1]	Relative to AgNO3 [1]	MIC (Escherichia coli HB101 [2])	Relative to AgNO3 (Escherichia coli HB101 [2])	Diameter of the zone of growth inhibition (Escherichia coli HB101 [3]; 5.7 × 10^0 mM) [mm]	Diameter of the zone of growth inhibition (Escherichia coli HB101 [3]; 5.7 × 10^1 mM) [mm]	Diameter of the zone of growth inhibition (Escherichia coli HB101 [3]; 5.7 × 10^−1 mM) [mm]	Diameter of the zone of growth inhibition (Escherichia coli HB101 [3]; 5.7 × 10^−2 mM) [mm]	Diameter of the zone of growth inhibition (Escherichia coli HB101 [3]; 5.7 × 10^−3 mM)	MIC (Bacillus subtilis W168 [4])	Relative to AgNO3 (Bacillus subtilis W168 [4])	Diameter of the zone of growth inhibition (Bacillus subtilis W168 [5]; 5.7 × 10^0 mM) [mm]	Diameter of the zone of growth inhibition (Bacillus subtilis W168 [5]; 5.7 × 10^1 mM) [mm]	Diameter of the zone of growth inhibition (Bacillus subtilis W168 [5]; 5.7 × 10^−1 mM) [mm]	Diameter of the zone of growth inhibition (Bacillus subtilis W168 [5]; 5.7 × 10^−2 mM) [mm]	Diameter of the zone of growth inhibition (Bacillus subtilis W168 [5]; 5.7 × 10^−3 mM) [mm]	Diameter of the zone of growth inhibition (Bacillus subtilis W168 [5]; 5.7 × 10^−4 mM)	Diameter of the zone of growth inhibition (Bacillus subtilis W168 [5]; 5.7 × 10^−5 mM)	MIC [6]	Relative to AgNO3 [6]	also measured
Fc1cccc(C(F)(F)F)c1N=C(N=C([N]([Ag])c1c(F)cccc1C(F)(F)F)C(F)(F)C(F)(F)C(F)(F)F)C(F)(F)C(F)(F)C(F)(F)F [[N{(C3F7)C(2-F,6-CF3C6H3)N}2]Ag]	17.56 μg/ml and 2.1 × 10^−2 mM	8.76 × 10^−1	8.78 μg/ml and 1.00 × 10^−2 mM	5.89	12.5	22.0	10.0	9.0	8.0 mm	8.70 × 10^−2 μg/ml and 1.04 × 10^−4 mM	1413.46	131.0	115.0	78.0	39.0	10.0	10.0 mm	9.0 mm	8.78 × 10^−1 μg/ml and 1.05 × 10^−3 mM	70.10	sensitivity of the bacteria to the compound (in words) [1]: most sensitive; sensitivity of the bacteria to the compound (in words) (Escherichia coli HB101 [2]): most sensitive; Diameter of the zone of growth inhibition (Bacillus subtilis W168 [5]; 5.7 × 10^−6 mM): 9.0 mm; Diameter of the zone of growth inhibition (Bacillus subtilis W168 [5]; 5.7 × 10^−7 mM): 7.5 mm; Diameter of the zone of growth inhibition ([7]; 5.7 × 10^0 mM): 15.0 mm; Diameter of the zone of growth inhibition ([7]; 5.7 × 10^1 mM): 23.5 mm; Diameter of the zone of growth inhibition ([7]; 5.7 × 10^−1 mM): 9.0 mm; Diameter of the zone of growth inhibition ([7]; 5.7 × 10^−2 mM): 6.0 (NZ) mm; Diameter of the zone of growth inhibition ([7]; 5.7 × 10^−3 mM): 6.0 (NZ) mm; antimicrobial activity (in words) [8]: Effective; Diameter of the zone of growth inhibition ([9]; 5.7 × 10^0 mM): 14.0 mm; Diameter of the zone of growth inhibition ([9]; 5.7 × 10^1 mM): 19.0 mm; Diameter of the zone of growth inhibition ([9]; 5.7 × 10^−1 mM): 9.5 mm; Diameter of the zone of growth inhibition ([9]; 5.7 × 10^−2 mM): 9.0 mm; Diameter of the zone of growth inhibition ([9]; 5.7 × 10^−3 mM): 7.5 mm; Diameter of the zone of growth inhibition ([9]; 5.7 × 10^−4 mM): 6.0 (NZ) mm; Diameter of the zone of growth inhibition ([9]; 5.7 × 10^−5 mM): 6.0 (NZ) mm; Diameter of the zone of growth inhibition ([9]; 5.7 × 10^−6 mM): 6.0 (NZ) mm; Diameter of the zone of growth inhibition ([9]; 5.7 × 10^−7 mM): 6.0 (NZ) mm
FC(F)(F)C(F)(F)C(F)(F)C(=Nc1c(Cl)cccc1Cl)N=C([N]([Ag])c1c(Cl)cccc1Cl)C(F)(F)C(F)(F)C(F)(F)F [[N{(C3F7)C(2,6-Cl2C6H3)N}2]Ag]	72.20 μg/ml and 8.98 × 10^−2 mM	2.05 × 10^−1	72.20 μg/ml and 8.98 × 10^−2 mM	6.56 × 10^−1	16.0	15.5	11.0	9.0	7.0 mm	4.27 × 10^−1 μg/ml and 5.31 × 10^−4 mM	276.84	21.0	19.5	18.0	19.0	12.0	6.0 (NZ) mm	6.0 (NZ) mm	0.853 μg/ml and 1.12 × 10^−2 mM	69.43	sensitivity of the bacteria to the compound (in words) [1]: most sensitive; sensitivity of the bacteria to the compound (in words) (Escherichia coli HB101 [2]): most sensitive; Diameter of the zone of growth inhibition ([7]; 5.7 × 10^0 mM): 13.5 mm; Diameter of the zone of growth inhibition ([7]; 5.7 × 10^1 mM): 15.0 mm; Diameter of the zone of growth inhibition ([7]; 5.7 × 10^−1 mM): 10.0 mm; Diameter of the zone of growth inhibition ([7]; 5.7 × 10^−2 mM): 7.0 mm; Diameter of the zone of growth inhibition ([7]; 5.7 × 10^−3 mM): 6.0 (NZ) mm; antimicrobial activity (in words) [8]: Effective; Diameter of the zone of growth inhibition ([9]; 5.7 × 10^0 mM): 16.5 mm; Diameter of the zone of growth inhibition ([9]; 5.7 × 10^1 mM): 20.0 mm; Diameter of the zone of growth inhibition ([9]; 5.7 × 10^−1 mM): 15.0 mm; Diameter of the zone of growth inhibition ([9]; 5.7 × 10^−2 mM): 14.5 mm; Diameter of the zone of growth inhibition ([9]; 5.7 × 10^−3 mM): 11.0 mm; Diameter of the zone of growth inhibition ([9]; 5.7 × 10^−4 mM): 6.0 (NZ) mm; Diameter of the zone of growth inhibition ([9]; 5.7 × 10^−5 mM): 6.0 (NZ) mm
FC(F)(F)C(F)(F)C(F)(F)C(=Nc1c(Cl)cccc1Cl)N=C(Nc1c(Cl)cccc1Cl)C(F)(F)C(F)(F)C(F)(F)F [[N{(C3F7)C(2,6-Cl2C6H3)N}2]H]	>16671.80 μg/ml and >23.92 mM	<7.69 × 10^−4	>16671.80 μg/ml and >23.92 mM	<2.46 × 10^−3	8.0	9.0	8.0	8.0	6.0 (NZ) mm	4.27 × 10^−1 μg/ml and 4.59 × 10^−4 mM	320.26	19.0	21.0	18.5	19.0	13.0	8.5 mm	7.0 mm	7.80 μg/ml and 2.12 × 10^−3 mM	6.57	Diameter of the zone of growth inhibition (Bacillus subtilis W168 [5]; 5.7 × 10^−6 mM): 7.5 mm; Diameter of the zone of growth inhibition (Bacillus subtilis W168 [5]; 5.7 × 10^−7 mM): 6.0 (NZ) mm; Diameter of the zone of growth inhibition ([7]; 5.7 × 10^0 mM): 8.0 mm; Diameter of the zone of growth inhibition ([7]; 5.7 × 10^1 mM): 9.0 mm; Diameter of the zone of growth inhibition ([7]; 5.7 × 10^−1 mM): 8.0 mm; Diameter of the zone of growth inhibition ([7]; 5.7 × 10^−2 mM): 8.0 mm; Diameter of the zone of growth inhibition ([7]; 5.7 × 10^−3 mM): 7.0 mm; antimicrobial activity (in words) [8]: Effective; Diameter of the zone of growth inhibition ([9]; 5.7 × 10^0 mM): 20.0 mm; Diameter of the zone of growth inhibition ([9]; 5.7 × 10^1 mM): 13.0 mm; Diameter of the zone of growth inhibition ([9]; 5.7 × 10^−1 mM): 16.0 mm; Diameter of the zone of growth inhibition ([9]; 5.7 × 10^−2 mM): 15.0 mm; Diameter of the zone of growth inhibition ([9]; 5.7 × 10^−3 mM): 7.0 mm; Diameter of the zone of growth inhibition ([9]; 5.7 × 10^−4 mM): 7.0 mm; Diameter of the zone of growth inhibition ([9]; 5.7 × 10^−5 mM): 8.0 mm; Diameter of the zone of growth inhibition ([9]; 5.7 × 10^−6 mM): 6.0 (NZ) mm; Diameter of the zone of growth inhibition ([9]; 5.7 × 10^−7 mM): 6.0 (NZ) mm
